Assay: xn = mol fraction of the nth substance listed
Conditions: 100 kPa

O=C1OCCO1 + CC[n+]1ccn(C)c1.O=S(=O)([N-]S(=O)(=O)C(F)(F)F)C(F)(F)F
Conditions | electrical conductivity [S/m] | viscosity [mPa·s]
293.15 K, x1 = 0.33 | 1.02 | –
293.15 K, x1 = 0.5263 | – | 15.1
293.15 K, x1 = 0.53 | 1.24 | –
293.15 K, x1 = 0.7476 | – | 8.1
293.15 K, x1 = 0.75 | 1.57 | –
293.15 K, x1 = 0.82 | 1.52 | –
293.15 K, x1 = 0.87 | 1.44 | –
293.15 K, x1 = 0.91 | 1.33 | –
293.15 K, x1 = 0.95 | 1.03 | –
303.15 K, x1 = 0.8163 | – | 4.1
303.15 K, x1 = 0.9467 | – | 3
313.15 K, x1 = 0.33 | 1.68 | –
313.15 K, x1 = 0.5263 | – | 9
313.15 K, x1 = 0.53 | 1.97 | –
313.15 K, x1 = 0.66 | 2.32 | –
313.15 K, x1 = 0.7476 | – | 4.6
313.15 K, x1 = 0.75 | 2.34 | –
313.15 K, x1 = 0.8163 | – | 3.4
313.15 K, x1 = 0.82 | 2.23 | –
313.15 K, x1 = 0.87 | 2.05 | –
313.15 K, x1 = 0.91 | 1.86 | –
313.15 K, x1 = 0.9467 | – | 2.4
313.15 K, x1 = 0.98 | 0.85 | –
313.15 K, x1 = 1 | – | 1.81
323.15 K, x1 = 0.5263 | – | 7.1
323.15 K, x1 = 0.7476 | – | 3.9
323.15 K, x1 = 0.8163 | – | 2.8
323.15 K, x1 = 0.9467 | – | 2.1
323.15 K, x1 = 1 | – | 1.56
333.15 K, x1 = 0.5263 | – | 5.8
333.15 K, x1 = 0.53 | 2.71 | –
333.15 K, x1 = 0.66 | 3.2 | –
333.15 K, x1 = 0.7476 | – | 3.3
333.15 K, x1 = 0.75 | 3.18 | –
333.15 K, x1 = 0.82 | 2.98 | –
333.15 K, x1 = 0.87 | 2.7 | –
333.15 K, x1 = 0.91 | 2.45 | –
333.15 K, x1 = 0.9467 | – | 1.84
333.15 K, x1 = 0.98 | 1.1 | –
333.15 K, x1 = 1 | – | 1.4
343.15 K, x1 = 0.7476 | – | 2.7
343.15 K, x1 = 0.8163 | – | 1.97
343.15 K, x1 = 0.9467 | – | 1.48
353.15 K, x1 = 0.33 | 3.29 | –
353.15 K, x1 = 0.5263 | – | 4
353.15 K, x1 = 0.53 | 4.04 | –
353.15 K, x1 = 0.7476 | – | 2.3
353.15 K, x1 = 0.75 | 4.43 | –
353.15 K, x1 = 0.8163 | – | 1.74
353.15 K, x1 = 0.87 | 3.59 | –
353.15 K, x1 = 0.91 | 3.01 | –
353.15 K, x1 = 0.95 | 2.29 | –
353.15 K, x1 = 1 | – | 1.07
363.15 K, x1 = 0.5263 | – | 3.4
363.15 K, x1 = 0.7476 | – | 2.03
363.15 K, x1 = 0.9467 | – | 1.2
363.15 K, x1 = 1 | – | 0.96
373.15 K, x1 = 0.7476 | – | 1.83
373.15 K, x1 = 0.8163 | – | 1.4
373.15 K, x1 = 0.9467 | – | 1.08
383.15 K, x1 = 0.5263 | – | 2.7
383.15 K, x1 = 0.8163 | – | 1.29
383.15 K, x1 = 0.9467 | – | 0.97
383.15 K, x1 = 1 | – | 0.74
393.15 K, x1 = 0.5263 | – | 2.4
393.15 K, x1 = 0.8163 | – | 1.19
393.15 K, x1 = 1 | – | 0.71

CC[n+]1ccn(C)c1.O=S(=O)([N-]S(=O)(=O)C(F)(F)F)C(F)(F)F + O=C1OCCO1
x2 = 0
Conditions | electrical conductivity [S/m] | viscosity [mPa·s]
293.15 K | 0.73 | 41.6
298.15 K | 0.9 | 33.9
303.15 K | – | 27.3
313.15 K | 1.29 | 19.1
323.15 K | – | 14.4
333.15 K | 1.94 | 11.3
343.15 K | – | 8.3
353.15 K | 2.73 | 6.8
363.15 K | – | 5.6
373.15 K | – | 4.8

From a compilation of properties of binary mixtures (doi:10.1021/acs.jced.5b00338)
